IC50 data for 30 molecules are collected here from US9181235B2, “Substituted pyridines for modulating the WNT signaling pathway” (NOVARTIS AG, priority 2010, dated 2015).

Structures are written as SMILES.

This test deals with Wnt signaling. The test is described as follows: Wnt-Luc reporter assay for pathway inhibition of Wnt signaling. The settings on record: Wnt-Luc reporter cells co-cultured with L-cell Wnt3a cells, 24 hours, luciferase signal reduced by 50%. It counts as cell-based, mouse (TM3 Wnt-Luc) or human (293 Wnt-Luc); not stated which. The protocol: This example provides a method that is useful for evaluating test compounds for inhibition of Wnt signaling.
Mouse leydig cell TM3 cells (obtained from American Type Culture Collection, ATCC, Manassas, Va.) are cultured in 1:1 mixture of Ham's F12 medium and Dulbecco's modified Eagle's medium (Gibco/Invitrogen, Carlsbad, Calif.) supplemented with 2.5% FBS (Gibco/Invitrogen, Carlsbad, Calif.) and 5% horse serum (Gibco/Invitrogen, Carlsbad, Calif.), 50 unit/mL penicillin and 50 μg/mL of streptomycin (Gibco/Invitrogen, Carlsbad, Calif.) at 37° C. with 5% CO2 in air atmosphere. TM3 cells in a 10 cm dish are co-transfected with 8 μg of STF-reporter plasmid containing a luciferase gene driven by Wnt-responsive elements and 2 μg of pcDNA3.1-Neo (Gibco/Invitrogen, Carlsbad, Calif.) with 30 μL of FuGENE6 (Roche Diagnostics, Indianapolis, Ind.) following the manufacturer's protocol. Stable cell lines (TM3 Wnt-Luc) were selected with 400 μg/mL of G418 (Gibco/Invitrogen, Carlsbad, Calif.). The TM3 Wnt-Luc cells and L-cell Wnt3a cells (obtained from American Type Culture Collection, ATCC, Manassas, Va.; cultured in Dulbecco's modified Eagle's medium (Gibco/Invitrogen, Carlsbad, Calif.) supplemented with 10% FBS (Gibco/Invitrogen, Carlsbad, Calif.) and 50 unit/mL penicillin and 50 μg/mL of streptomycin (Gibco/Invitrogen, Carlsbad, Calif.) at 37° C. with 5% CO2 in air atmosphere) are trypsinized and co-cultured into a 384-well plate with DMEM medium supplemented with 2% FBS, and treated with different concentrations of a compound of the invention. After 24 hours, the firefly luciferase activities are assayed with the Bright-Glo™ Luciferase Assay System (Promega, Madison, Wis.). The IC50 is measured when the effect of the compound reduces the luminescence signal by 50%.
This example provides another method that is useful for evaluating test compounds for inhibition of Wnt signaling.
Human embryonic kidney 293 cells (obtained from American Type Culture Collection, ATCC, Manassas, Va.) are cultured in DMEM medium (Gibco/Invitrogen, Carlsbad, Calif.) supplemented with 10% FBS (Gibco/Invitrogen, Carlsbad, Calif.), 50 unit/mL penicillin and 50 μg/mL of streptomycin (Gibco/Invitrogen, Carlsbad, Calif.) at 37° C. with 5% CO2 in air atmosphere. 293 cells in a 10 cm dish are co-transfected with 8 μg of STF-reporter plasmid containing a luciferase gene driven by Wnt-responsive elements and 2 μg of pcDNA3.1-Neo (Gibco/Invitrogen, Carlsbad, Calif.) with 30 μL of FuGENE6 (Roche Diagnostics, Indianapolis, Ind.) following the manufacturer's protocol. Stable cell lines (293 Wnt-Luc) were selected with 400 μg/mL of G418 (Gibco/Invitrogen, Carlsbad, Calif.). The 293 Wnt-Luc cells and L-cell Wnt3a cells (obtained from American Type Culture Collection, ATCC, Manassas, Va.) are trypsinized and co-cultured into a 384-well plate with DMEM medium supplemented with 2% FBS, and treated with different concentrations of a compound of the invention. After 24 hours, the firefly luciferase activities are assayed with the Bright-Glo™ Luciferase Assay System (Promega, Madison, Wis.). The IC50 is measured when the effect of the compound reduces the luminescence signal by 50%.
(In a reporter assay the amount or activity of a reporter protein is the signal.)
`O=C(NCc1ccc(-c2ccnnc2)cc1)c1ccc(-c2ccccc2)cc1` [compound 1, N-(4-(pyridazin-4-yl)benzyl)biphenyl-4-carboxamide] gave an IC50 of 1900 pM.

As to `O=C(NCc1ccc(-c2ccnnc2)cc1)c1ccc(-c2cccc(F)c2)cc1` [compound 2, 4-(3-fluorophenyl)-N-{[4-(pyridazin-4-yl)phenyl]methyl}benzamide], it took 950 pM to reach half-maximal inhibition (IC50).

As for `O=C(NCc1ccc(N2CCS(=O)(=O)CC2)nc1)c1ccc(-c2cccc(F)c2)cc1` [compound 3, N-((6-(1,1-dioxidothiomorpholino)pyridin-3-yl)methyl)-3′-fluoro-[1,1′-biphenyl]-4-carboxamide], the IC50 amounted to 2300 pM.

`O=C(NCc1ccc(N2CCS(=O)(=O)CC2)nc1)c1ccc(-c2cccc(F)c2)nc1` [compound 4, N-((6-(1,1-dioxidothiomorpholino)pyridin-3-yl)methyl)-6-(3-fluorophenyl)nicotinamide] registered an IC50 of 2400 pM.

`O=C(NCc1ccc(N2CCS(=O)(=O)CC2)nc1)c1ccc(-c2cccnc2)nc1` [compound 5, N-((6-(1,1-dioxidothiomorpholino)pyridin-3-yl)methyl)-[2,3′-bipyridine]-5-carboxamide]: half-maximal inhibition (IC50) was put at 129000 pM.

In the case of `O=C(NCc1ccc(N2CCS(=O)(=O)CC2)nc1)c1ccc(-c2cccc(F)c2)cn1` [compound 6, 5-(3-Fluorophenyl)-N-((6-(1,1-dioxide-thiomorpholino)pyridin-3-yl)methyl)picolinamide], the IC50 amounted to 900 pM.

For the molecule `COC(=O)N1CCN(c2ccc(C(=O)NCc3ccc(N4CCS(=O)(=O)CC4)nc3)cc2)CC1` [compound 7, methyl 4-(4-(((6-(1,1-dioxidothiomorpholino)pyridin-3-yl)methyl)carbamoyl)phenyl)piperazine-1-carboxylate], the IC50 came out at 19000 pM.

`O=C(NCc1ccc(N2CC[S+]([O-])CC2)nc1)c1ccc(-c2cccc(F)c2)cc1` [compound 8, 3′-fluoro-N-((6-(1-oxide-thiomorpholino)pyridin-3-yl)methyl)biphenyl-4-carboxamide] displayed an IC50 of 700 pM.

As for `Cc1cc(-c2ccc(CNC(=O)c3ccc(-c4ccccc4)cc3)cc2)ccn1` [compound 9, N-{[4-(2-methylpyridin-4-yl)phenyl]methyl}-4-phenylbenzamide], the IC50 was determined as 60 pM.

For the molecule `O=C(NCc1ccc(-c2cccnc2)cc1)c1ccc(-c2ccccc2)cc1` [compound 10, N-(4-(pyridin-3-yl)benzyl)biphenyl-4-carboxamide], the IC50 was 12500 pM.

In turn, `Cc1cc(-c2ccc(CNC(=O)c3ccc(-c4ccccc4)cn3)cc2)ccn1` [compound 11, N-{[4-(2-methylpyridin-4-yl)phenyl]methyl}-5-phenylpyridine-2-carboxamide] registered an IC50 of 200 pM.

As for `Cc1cc(-c2ccc(CNC(=O)c3ccc(-c4cccc(F)c4)cc3)cc2)ccn1` [compound 12, 4-(3-fluorophenyl)-N-{[4-(2-methylpyridin-4-yl)phenyl]methyl}benzamide], inhibition was half-maximal at 60 pM (IC50).

`Cc1cc(-c2ccc(CNC(=O)c3ccc(-c4ccccn4)cc3)cc2)ccn1` [compound 13, N-(4-(2-methylpyridin-4-yl)benzyl)-4-(pyridin-2-yl)benzamide] had an IC50 of 100 pM.

As to `COC(=O)N1CCN(c2ccc(C(=O)NCc3cnc(-c4ccnc(C(F)(F)F)c4)c(F)c3)cn2)CC1` [compound 14, methyl 4-{5-[({5-fluoro-6-[2-(trifluoromethyl)pyridin-4-yl]pyridin-3-yl}methyl)carbamoyl]pyridin-2-yl}piperazine-1-carboxylate], half-maximal inhibition (IC50) was put at 440 pM.

Turning to `Cc1cc(-c2ccc(CNC(=O)c3ccc(-c4cncnc4)cc3)cc2F)ccn1` [compound 15, N-(3-fluoro-4-(2-methylpyridin-4-yl)benzyl)-4-(pyrimidin-5-yl)benzamide], 10 pM corresponded to half-maximal inhibition (IC50).

Molecule `Cc1cc(-c2ccc(CNC(=O)c3ccc(-c4cncnc4)cc3)cc2)ccn1` [compound 16, N-{[4-(2-methylpyridin-4-yl)phenyl]methyl}-4-(pyrimidin-5-yl)benzamide] came in with an IC50 of 50 pM.

Molecule `Cc1cc(-c2ccc(CNC(=O)c3ccc(-c4cnccn4)cc3)cc2)ccn1` [compound 17, N-{[4-(2-methylpyridin-4-yl)phenyl]methyl}-4-(pyrazin-2-yl)benzamide] returned an IC50 of 60 pM.

`Cc1cc(-c2ccc(CNC(=O)c3ccc(-c4cnccn4)cc3)cn2)ccn1` [compound 18, N-((2′-methyl-[2,4′-bipyridin]-5-yl)methyl)-4-(pyrazin-2-yl)benzamide]: 200 pM corresponded to half-maximal inhibition (IC50).

As for `Cc1cc(-c2ccc(CNC(=O)c3ccc(-c4ccnnc4)nc3)cc2)ccn1` [compound 19, N-{[4-(2-methylpyridin-4-yl)phenyl]methyl}-6-(pyridazin-4-yl)pyridine-3-carboxamide], the midpoint of inhibition, the IC50, lay at 27000 pM.

Regarding `CC(=O)N1CCN(c2ccc(C(=O)NCc3ccc(-c4ccnc(C)c4)c(F)c3)cn2)CC1` [compound 20, 6-(4-Acetylpiperazin-1-yl)-N-(3-fluoro-4-(2-methylpyridin-4-yl)benzyl)nicotinamide], the midpoint of inhibition, the IC50, lay at 6400 pM.

`Cn1cc(-c2ccc(CNC(=O)c3ccc(-c4cnccn4)cc3)cc2F)ccc1=O` [compound 21, N-(3-fluoro-4-(1-methyl-6-oxo-1,6-dihydropyridin-3-yl)benzyl)-4-(pyrazin-2-yl)benzamide] returned a 50% inhibitory concentration (IC50) of 6400 pM.

The molecule `CC(=O)N1CCN(c2ccc(C(=O)NCc3ccc(-c4ccnc(C)c4)c(F)c3)nc2)CC1` [compound 22, 5-(4-acetylpiperazin-1-yl)-N-{[3-fluoro-4-(2-methylpyridin-4-yl)phenyl]methyl}pyridine-2-carboxamide] showed an IC50 of 8500 pM.

As for `Cc1cc(-c2ccc(CNC(=O)c3ccc(-c4cccc(F)c4)cc3)cn2)ccn1` [compound 23, 4-(3-fluorophenyl)-N-{[6-(2-methylpyridin-4-yl)pyridin-3-yl]methyl}benzamide], the IC50 stood at 100 pM.

On to `O=C(NCc1ccc(-c2ccnc(F)c2)nc1)c1ccc(-c2cnccn2)cc1` [compound 24, N-((2′-fluoro-[2,4′-bipyridin]-5-yl)methyl)-4-(pyrazin-2-yl)benzamide], for which half-maximal inhibition (IC50) was put at 800 pM.

The molecule `CN(C)c1ccc(-c2ccc(C(=O)NCc3ccc(-c4ccnc(F)c4)nc3)cn2)cn1` [compound 25, 6-[6-(dimethylamino)pyridin-3-yl]-N-{[6-(2-fluoropyridin-4-yl)pyridin-3-yl]methyl}pyridine-3-carboxamide] registered an IC50 of 1400 pM.

Consider `Cc1cc(-c2ccc(CNC(=O)c3ccc(-c4cccc(F)c4)cn3)cn2)ccn1` [compound 26, 5-(3-fluorophenyl)-N-{[6-(2-methylpyridin-4-yl)pyridin-3-yl]methyl}pyridine-2-carboxamide], for which inhibition was half-maximal at 500 pM (IC50).

As for `Cc1cc(-c2ccc(CNC(=O)c3ccc(-c4cccc(F)c4)nc3)cn2)ccn1` [compound 27, 6-(3-fluorophenyl)-N-{[6-(2-methylpyridin-4-yl)pyridin-3-yl]methyl}pyridine-3-carboxamide], the IC50 was determined as 200 pM.

`O=C(NCc1ccc(-c2ccnc(C(F)(F)F)c2)cc1)c1ccc(-c2cnccn2)cc1` [compound 28, 4-(Pyrazin-2-yl)-N-(4-(2-(trifluoromethyl)pyridin-4-yl)benzyl)benzamide] came in with an IC50 of 900 pM.

On to `Cc1cc(-c2ccc(CNC(=O)c3ccc(-c4cccc(N(C)C)c4)cn3)cn2)ccn1` [compound 29, 5-[3-(dimethylamino)phenyl]-N-{[6-(2-methylpyridin-4-yl)pyridin-3-yl]methyl}pyridine-2-carboxamide], for which the IC50 was 43000 pM.

With `Cc1cc(CNC(=O)c2ccc(-c3cccc(F)c3)cn2)cnc1-c1ccnc(F)c1` [compound 30, N-((2′-fluoro-3-methyl-2,4′-bipyridin-5-yl)methyl)-5-(3-fluorophenyl)picolinamide], the IC50 is 170 pM.

Broadly, the IC50 is the concentration at which inhibition is half-maximal. The low end stands for greater potency, the high end for weaker potency.
